From patent US9827236B2, “Method of inhibiting the glycation of nutrient and endogenous proteins and peroxidation of nutrient and endogenous lipids” (priority 2014, dated 2017)

What was measured:
[1] = test system: nutrient protein (lysine); test: Effect of pH variation on protein glycation, in vitro, spectrophotometer; details: for % decrease om AGE formation with decreasing pH: protein glycation
Description: (§1) In one embodiment of the present application, glycation is induced in the nutrient proteins by combining them with different types of sugars and thermally processing the combination at various temperatures and with various levels of alkalinity. The processing is repeated by adding the identified glycation inhibitor. The nutrient protein in this case could be lysine or any other nutrient protein in liquid, semisolid or solid form. In the context of this invention, thermal processing implies heating the food at various temperatures using any method of cooking such as baking, roasting, frying, boiling, etc. […] The effectiveness of the inhibiting agents and their combinations were ascertained using a series of in vitro experiments with nutrient lysine or collage protein, various sugars, natural polyunsaturated fatty acids and monounsaturated fatty acids and natural, pure form of inhibiting agents in extract forms. Absorbance values, measured using a spectrophotometer, were used to determine and compare formation of glycated proteins. Industry standard iodometric titration was used to determine and compare peroxidation levels in lipids.

[2] = test system: nutrient protein (lysine); test: Effect of temperature on protein glycation, in vitro, spectrophotometer; details: for % decrease in AGE formation from 100 to 60 deg C.: protein glycation
Description: as §1

[3] = test system: nutrient protein (lysine) in the presence of reducing sugars; test: Inhibition of nutrient protein glycation, in vitro, absorbance by spectrophotometer
Protocol: Percentage inhibition was determined using an in vitro experiment. Lysine was used to simulate the nutrient protein.
In one embodiment of the present application, glycation is induced in the nutrient proteins by combining them with different types of sugars and thermally processing the combination at various temperatures and with various levels of alkalinity. The processing is repeated by adding the identified glycation inhibitor. The nutrient protein in this case could be lysine or any other nutrient protein in liquid, semisolid or solid form.
(§2) The effectiveness of the inhibiting agents and their combinations were ascertained using a series of in vitro experiments with nutrient lysine or collage protein, various sugars, natural polyunsaturated fatty acids and monounsaturated fatty acids and natural, pure form of inhibiting agents in extract forms. Absorbance values, measured using a spectrophotometer, were used to determine and compare formation of glycated proteins. Industry standard iodometric titration was used to determine and compare peroxidation levels in lipids.
(§3) In the case of inhibition of nutrient protein glycation and nutrient lipid peroxidation for disease prevention, it is recommended that the amount of inhibiting agent to be combined with the nutrient protein or nutrient lipid be as shown in the Table 1. Further, a combination of such inhibiting agents could be applied to increase the effectiveness of inhibition.

[4] = test system: nutrient lipid (PUFA, MUFA) peroxidation; test: Inhibition of nutrient lipid peroxidation, in vitro, iodometric titration
Protocol: Percentage inhibition was determined using an in vitro experiment. Olive oil, a polyunsaturated fatty acid (PUFA) and safflower oil, a monounsaturated fatty acid (MUFA) were used to simulate nutrient lipids.
In another embodiment, peroxidation is induced in nutrient lipids by thermally processing them at various temperatures and with various levels of alkalinity. The processing is repeated by adding the identified peroxidation inhibitor. The nutrient lipid in this case could be polyunsaturated fatty acid or monounsaturated fatty acid in liquid, semisolid or solid form.
as §2, §3

OC[C@H]1O[C@@H](O[C@H]2[C@H](O)[C@@H](O)C(O)O[C@@H]2CO)[C@H](O)[C@@H](O)[C@H]1O (some centres unmarked) [Lactose]
Absorbance at different pH values ([1]; pH 8): 0.17
Absorbance at different pH values ([1]; pH 10): 0.22
Absorbance at different pH values ([1]; ph 4): 0.02
% decrease om AGE formation with decreasing pH [1]: 90.8%
Absorbance at different temperatures ([2]; 60 deg C.): 0.06
Absorbance at different temperatures ([2]; 80 deg C.): 0.18
Absorbance at different temperatures ([2]; 100 deg C.): 0.17
% decrease in AGE formation from 100 to 60 deg C. [2]: 67.9%

NC(=O)c1cccnc1 [Antioxidant (Niacinamide), Niacinamide]
Concentration needed for 50% inhibition, Protein Glycation [3]: 15%
Concentration needed for 50% inhibition, Lipid Peroxidation [4]: 13%

Oc1ccc(C=Cc2cc(O)cc(O)c2)cc1 [Phenol (Resveratrol), Resveratrol]
Concentration needed for 50% inhibition, Protein Glycation [3]: 10%
Concentration needed for 50% inhibition, Lipid Peroxidation [4]: 8%

OC[C@H]1O[C@H](O[C@H]2[C@H](O)[C@@H](O)[C@H](O)O[C@@H]2CO)[C@H](O)[C@@H](O)[C@@H]1O [Maltose]
Absorbance at different pH values ([1]; pH 8): 0.22
Absorbance at different pH values ([1]; pH 10): 0.26
Absorbance at different pH values ([1]; ph 4): 0.04
% decrease om AGE formation with decreasing pH [1]: 84.4%
Absorbance at different temperatures ([2]; 60 deg C.): 0.04
Absorbance at different temperatures ([2]; 80 deg C.): 0.22
Absorbance at different temperatures ([2]; 100 deg C.): 0.22
% decrease in AGE formation from 100 to 60 deg C. [2]: 80.0%

O=C(O[C@@H]1Cc2c(O)cc(O)cc2O[C@@H]1c1cc(O)c(O)c(O)c1)c1cc(O)c(O)c(O)c1 [Catechin (EGCG), EGCG]
Concentration needed for 50% inhibition, Protein Glycation [3]: 13%
Concentration needed for 50% inhibition, Lipid Peroxidation [4]: 9%

O=C[C@H](O)[C@H](O)[C@H](O)CO [Ribose]
Absorbance at different pH values ([1]; pH 8): 0.59
Absorbance at different pH values ([1]; pH 10): 0.79
Absorbance at different pH values ([1]; ph 4): 0.09
% decrease om AGE formation with decreasing pH [1]: 88.4%
Absorbance at different temperatures ([2]; 60 deg C.): 0.13
Absorbance at different temperatures ([2]; 80 deg C.): 0.52
Absorbance at different temperatures ([2]; 100 deg C.): 0.59
% decrease in AGE formation from 100 to 60 deg C. [2]: 78.1%

NCCC(=O)N[C@@H](Cc1cnc[nH]1)C(=O)O [Chelating agent (Carnosine), Carnosine]
Concentration needed for 50% inhibition, Protein Glycation [3]: 16%
Concentration needed for 50% inhibition, Lipid Peroxidation [4]: 12%

Tocopherol [Antioxidant (Tocopherol)]
Concentration needed for 50% inhibition, Protein Glycation [3]: 17%
Concentration needed for 50% inhibition, Lipid Peroxidation [4]: 15%

O=C(CO)[C@@H](O)[C@H](O)[C@H](O)CO [Fructose]
Absorbance at different pH values ([1]; pH 8): 0.5
Absorbance at different pH values ([1]; pH 10): 0.65
Absorbance at different pH values ([1]; ph 4): 0.07
% decrease om AGE formation with decreasing pH [1]: 89.4%
Absorbance at different temperatures ([2]; 60 deg C.): 0.1
Absorbance at different temperatures ([2]; 80 deg C.): 0.37
Absorbance at different temperatures ([2]; 100 deg C.): 0.5
% decrease in AGE formation from 100 to 60 deg C. [2]: 79.1%

O=C1O[C@H]([C@@H](O)CO)C(O)=C1O [Antioxidant (Ascorbic Acid), Ascorbic Acid]
Concentration needed for 50% inhibition, Protein Glycation [3]: 7%
Concentration needed for 50% inhibition, Lipid Peroxidation [4]: 11%
